Measured values reported in US7812142B2, “Pentose derivatives as anti-hyperglycemic drugs” (Yissum Research Development Company of the Hebrew …, priority 2002, dated 2010).

What was measured:
L6 myotubes = assay: dGlc uptake assay in L6 myotubes; assay type: cell-based, rat; conditions: 60 μM inhibitor, 23.0 mM glucose (FIG. 11A); EH-40 data not shown
Procedure: FIG. 10: Western blot depicting effect of 3-O-propyl-D-xylose (EH-114), and 1,3-O-dimethylxylopyranoside (EH-101) on the total cell content and plasma membrane abundance of GLUT-4 in the absence or presence of insulin. L6 myotubes were maintained for 48 hr at 23 mM Glucose. The cells were than washed and received fresh medium containing the indicated additions and incubated for additional […]. Insulin was added during the last 30 min of incubation before the dGlc uptake assay.
FIG. 11A: Effect of LY-249002, a PI3-kinase inhibitor, on insulin, D-xylose, EH-101 and EH-114-mediated glucose uptake. L6 myotubes were treated as described in the legend to FIG. 10. The glucose concentration in the culture medium was 23.0 mM. The concentration of LY-294002 was 60 μM. At the end of incubation the cells were taken for the standard dGlc uptake assay. Mean±SEM, n=3.
GLUT-1 and GLUT-4 mediate glucose entry into L6 myotubes. It is established that GLUT-4 is translocated effectively and rapidly to the plasma membrane upon insulin treatment. The inventors looked at the effect of 3-O-propyl-D-xylose EH-114) and 1,3-O-dimethylxylopyranoside (EH-101) on the total cell content and plasma membrane abundance of these transporters in the absence or presence of insulin. L6 myotubes were maintained at 5.0 or 23.0 mM glucose for 48 hr and EH-114 and EH-101 were present during the last 24 hr. The cells were then taken for the standard [^3H]-2-deoxy-D-glucose uptake assay and for the biotinylation procedure for determining the amount of GLUT-1 and GLUT-4 in the plasma membrane. High glucose levels decreased the hexose transport rate by ˜50%. Insulin augmented the transport nearly 2-fold in both cases. EH-114 and EH-101 increased the transport rate 2-3-fold in the absence of insulin. Together with insulin the uptake rate was increased nearly 3-fold.
The inventors also tested the hypothesis that the active D-xylose derivatives augment the hexose transport capacity in L6 myotubes by translocating GLUT-4 to the plasma membrane not via the common insulin-regulated pathway. For this experiment, a selective inhibitor of the enzyme PI3-kinase, LY-249002, which is a key enzyme in the cellular transduction mechanism of insulin, was utilized. […] These findings also agree well with the longer onset of action of these derivatives as compared to the rapid action of insulin. Similar results were obtained when LY-249002 was present together with the derivatives throughout the entire incubation period.
Uptake assay of the tritiated glucose analogue, 2-deoxy-D-glucose, is routinely performed as described in [Sasson, S. and Cerasi, E. (1986) J. Biol. Chem. 261, 16827-16833].

[1] = test system: isolated rat soleus muscles; assay: dGlc uptake in isolated soleus muscles; assay type: cell-based; conditions: 3 hr, 20 mM glucose with 20 mM xylose (FIG. 9)
Procedure: FIG. 9: Effect of D-xylose on dGlc uptake in soleus muscles. Soleus muscles were isolated from Sabra male albino rats and incubated for 3 hr with 20 mM glucose in the absence or the presence of 20 mM xylose. The muscles were washed and subjected to dGlc uptake assay without or with insulin (500 nM). Mean±SEM (n=3).
Some experiments with isolated rat soleus muscles were performed, in order to exclude cell-line specific effects, and to assess the physiologic relevance of the findings of the present invention. Soleus muscles were isolated from Sabra male albino rats and incubated for 3 hr with 20 mM glucose in the absence or the presence of 20 mM xylose. The muscles were washed and subjected to dGlc uptake assay without or with insulin (500 nM).
The procedure follows that described before in [Sasson et al (1987), Diabetes 36, 1041-46].

glucose transporter = assay: [3H]dGlc uptake with unlabeled carbohydrates (affinity for the glucose transporter) in C2 myotubes; assay type: cell-based, mouse
Procedure: FIG. 6: Lack of affinity of D-xylose for the glucose transporters. C2 myotubes preconditioned with 20 mM glucose were subjected to [^3H]dGlc uptake assay (0.1 mM dGlc) with increasing concentrations of unlabeled dGlc, glucose or xylose. The unlabeled carbohydrates were added to the [^3H]dGlc solution in the uptake assay.
The inventors have also determined the affinity of D-xylose for the glucose transporter. C2 myotubes preconditioned with 20 mM glucose were subjected to [^3H]dGlc uptake assay (0.1 mM dGlc) in the presence of increasing concentrations of unlabeled dGlc, glucose or xylose. The results of these experiments are depicted in FIG. 6. The affinity of D-xylose for the glucose transporter is 2 orders of magnitude lower compared to glucose. The final concentration of dGlc in the assay was 0.1 mM.

## O=C[C@H](O)[C@@H](O)[C@H](O)CO [D-xylose]
L6 myotubes
  effect of PI3-kinase inhibitor LY-249002 on the substance's stimulation of hexose transport: failed to affect
[1]
  increase of the rate of dGlc uptake: 42%
Glucose transporter; 0.1 mM dGlc (FIG. 6)
  affinity for the glucose transporter compared to glucose: 2 orders of magnitude lower
Glucose transporter; 0.1 mM dGlc, increasing unlabeled carbohydrate
  competition with [3H]dGlc: much weaker competitor
Glucose transporter; over 0.1 mM dGlc
  molar excess necessary to achieve 50% inhibition of transport: at least 100 fold molar excess
